ChEMBL document CHEMBL2074549, “Regulation of 2-acetylaminofluorene-and 3-methylcholanthrene--mediated induction of multidrug resistance and cytochrome P450IA gene family expression in primary hepatocyte cultures and rat liver” (Mol Carcinog, 1991)

Columns and labels:
[1] = target: Multidrug resistance protein 1a (Rattus norvegicus) (UniProt Q6PSM0); experiment: TP_TRANSPORTER: Western blot, primary hepatocytes; type: functional, cell-based; details: Hepatocyte
[2] = target: ATP-dependent translocase ABCB1 (Rattus norvegicus, UniProt P43245); experiment: TP_TRANSPORTER: Northern blot from primary hepatocytes; type: functional, Hepatocyte
Chain of ATP-dependent translocase ABCB1 (P43245 whole entry): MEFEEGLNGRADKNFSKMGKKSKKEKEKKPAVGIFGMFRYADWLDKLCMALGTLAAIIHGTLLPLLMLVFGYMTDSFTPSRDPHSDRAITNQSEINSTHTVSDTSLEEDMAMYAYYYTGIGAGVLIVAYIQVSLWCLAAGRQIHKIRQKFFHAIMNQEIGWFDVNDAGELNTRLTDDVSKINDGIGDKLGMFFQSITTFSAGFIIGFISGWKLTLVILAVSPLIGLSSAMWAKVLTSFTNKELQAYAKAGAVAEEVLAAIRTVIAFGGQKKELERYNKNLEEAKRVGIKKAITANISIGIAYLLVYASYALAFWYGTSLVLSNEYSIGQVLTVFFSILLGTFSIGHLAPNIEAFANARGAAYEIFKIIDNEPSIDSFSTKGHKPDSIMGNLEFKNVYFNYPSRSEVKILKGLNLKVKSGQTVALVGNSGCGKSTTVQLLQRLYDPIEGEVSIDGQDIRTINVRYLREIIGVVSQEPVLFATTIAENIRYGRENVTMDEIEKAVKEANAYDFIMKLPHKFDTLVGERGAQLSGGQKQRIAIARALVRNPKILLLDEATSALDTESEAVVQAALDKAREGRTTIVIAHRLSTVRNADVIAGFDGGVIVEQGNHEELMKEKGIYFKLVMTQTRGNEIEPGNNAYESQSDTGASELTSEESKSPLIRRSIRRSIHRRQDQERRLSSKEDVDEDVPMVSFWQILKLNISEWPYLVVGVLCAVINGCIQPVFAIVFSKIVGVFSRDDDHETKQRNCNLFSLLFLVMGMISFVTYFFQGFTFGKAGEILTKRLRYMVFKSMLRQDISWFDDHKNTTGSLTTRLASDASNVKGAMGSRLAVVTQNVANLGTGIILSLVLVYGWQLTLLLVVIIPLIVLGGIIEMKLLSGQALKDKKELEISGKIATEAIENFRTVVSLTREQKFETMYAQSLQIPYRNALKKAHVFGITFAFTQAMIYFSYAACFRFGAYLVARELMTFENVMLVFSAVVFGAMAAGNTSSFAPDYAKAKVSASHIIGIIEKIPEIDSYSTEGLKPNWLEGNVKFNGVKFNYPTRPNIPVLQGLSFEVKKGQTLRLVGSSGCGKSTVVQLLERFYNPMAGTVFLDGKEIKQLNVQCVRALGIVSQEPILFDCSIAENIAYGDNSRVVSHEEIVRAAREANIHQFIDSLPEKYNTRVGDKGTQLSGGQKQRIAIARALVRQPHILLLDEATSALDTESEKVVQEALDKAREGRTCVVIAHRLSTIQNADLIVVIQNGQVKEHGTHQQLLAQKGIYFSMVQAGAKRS

Chain of Multidrug resistance protein 1a (Rattus norvegicus) (Q6PSM0 as listed by the source): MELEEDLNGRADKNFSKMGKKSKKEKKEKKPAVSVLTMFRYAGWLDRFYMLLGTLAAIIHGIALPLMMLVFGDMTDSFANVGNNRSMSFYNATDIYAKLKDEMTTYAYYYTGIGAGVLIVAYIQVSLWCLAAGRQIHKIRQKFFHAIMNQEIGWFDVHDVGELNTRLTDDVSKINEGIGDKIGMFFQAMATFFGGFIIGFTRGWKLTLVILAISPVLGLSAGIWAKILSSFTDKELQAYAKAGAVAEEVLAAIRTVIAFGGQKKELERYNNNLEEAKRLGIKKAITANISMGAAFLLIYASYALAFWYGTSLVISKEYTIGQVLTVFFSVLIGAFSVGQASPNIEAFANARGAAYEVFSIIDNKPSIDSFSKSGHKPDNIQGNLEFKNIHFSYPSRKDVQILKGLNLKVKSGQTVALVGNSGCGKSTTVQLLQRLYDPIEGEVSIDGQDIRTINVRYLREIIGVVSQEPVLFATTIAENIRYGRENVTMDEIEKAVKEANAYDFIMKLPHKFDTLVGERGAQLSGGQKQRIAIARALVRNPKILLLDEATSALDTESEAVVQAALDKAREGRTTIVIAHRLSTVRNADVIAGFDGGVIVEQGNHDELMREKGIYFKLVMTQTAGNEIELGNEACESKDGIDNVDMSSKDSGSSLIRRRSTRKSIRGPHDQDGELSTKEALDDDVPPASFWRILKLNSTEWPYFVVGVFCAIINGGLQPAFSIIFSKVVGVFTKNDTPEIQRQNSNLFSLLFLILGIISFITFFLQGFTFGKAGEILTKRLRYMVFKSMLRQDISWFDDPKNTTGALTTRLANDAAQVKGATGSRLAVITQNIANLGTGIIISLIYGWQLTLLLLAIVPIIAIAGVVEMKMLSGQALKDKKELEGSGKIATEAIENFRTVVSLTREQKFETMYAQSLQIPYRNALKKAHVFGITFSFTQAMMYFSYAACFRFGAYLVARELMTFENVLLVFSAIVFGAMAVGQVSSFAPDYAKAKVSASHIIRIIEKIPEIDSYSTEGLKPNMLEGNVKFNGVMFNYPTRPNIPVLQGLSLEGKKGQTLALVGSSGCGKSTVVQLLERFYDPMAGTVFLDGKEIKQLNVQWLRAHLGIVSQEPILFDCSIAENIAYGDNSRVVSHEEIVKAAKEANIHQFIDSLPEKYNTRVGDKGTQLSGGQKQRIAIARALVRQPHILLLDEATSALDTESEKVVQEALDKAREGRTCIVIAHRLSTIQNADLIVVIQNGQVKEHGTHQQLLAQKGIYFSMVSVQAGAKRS

With `CC(=O)Nc1ccc2c(c1)Cc1ccccc1-2` the Activity [1] was “inducer [+]”.
With `Cc1ccc2cc3c(ccc4ccccc43)c3c2c1CC3` [3-METHYLCHOLANTHRENE] the Activity [2] was “inducer [+]” and the Activity [1] was “inducer [+]”.
